# US8709405B2, “Cancer vaccines containing epitopes of oncofetal antigen” (South Alabama Medical Science Foundation, priority 2002, dated 2014)
# Key:
# Format in all cases: cell-based, BALB/c mouse
# [1] = system: CD8 T cell clone H5 (Ts); assay: BUdR incorporation ELISA proliferation assay, Ts clone H5; conditions: Table 4
# Protocol: (§1) The epitopes recognized by 15 iLRP-reactive T cell clones derived from either naive BALB/c mice, BALB/c mice bearing MCA1315 fibrosarcoma tumors, or from BALB/c mice immunized with either 1 or 10 μg of recombinant murine iLRP were determined by testing the proliferation of those clones to overlapping peptides spanning the region of the iLRP molecule recognized by each clone in the presence of IL-2, as a growth factor for T cells and irradiated, T cell-depleted, syngeneic spleen cells as antigen-presenting cells. Proliferation was measured through ELISA determination of 5-bromodeoxyuridine incorporation during culture.
# (§2) More specifically, the epitope-specificity of the iLRP-specific Th1, Tc, and Ts clones was determined using a modification of the 5′-bromodeoxyuridine (BudR) incorporation ELISA technique described in Rohrer, J. W., A. L. Barsoum, D. L. Dyess, J. A. Tucker, and J. H. Coggin, Jr. 1999. Human breast carcinoma patients develop clonable oncofetal antigen-specific effector and regulatory T lymphocytes. J. Immunol. 162:6880, using the Biotrak BUdR incorporation assay (Amersham, Arlington Heights, Ill.). […] When the required color density was reached, the reaction was stopped by adding 25 μl of 1M sulfuric acid to each well and the plate read on a microELISA reader at 450 nm. […]
# [2] = system: iLRP-specific T cell clone L1 (CD8 Ts); assay: BUdR incorporation ELISA proliferation assay, Ts clone L1; conditions: Table 3; for BUdR Incorporation (A450) of iLRP-specific T cell clone L1 cells, Expt. 1 / BUdR Incorporation (A450) of iLRP-specific T cell clone L1 cells, Expt. 2: 100 ng/well stimulant with irradiated syngeneic spleen cells (APC), 48 h culture
# Protocol: as §1
# (§3) More specifically, the epitope-specificity of the iLRP-specific Th1, Tc, and Ts clones was determined using a modification of the 5′-bromodeoxyuridine (BudR) incorporation ELISA technique described in Rohrer, J. W., A. L. Barsoum, D. L. Dyess, J. A. Tucker, and J. H. Coggin, Jr. 1999. Human breast carcinoma patients develop clonable oncofetal antigen-specific effector and regulatory T lymphocytes. J. Immunol. 162:6880, using the Biotrak BUdR incorporation assay (Amersham, Arlington Heights, Ill.). Briefly, at the time of restimulation of the clones, a portion of the cloned T cells were assayed for proliferation to antigen-presenting cells (APC) and various iLRP peptides. The assay was performed with 10,000 viable cloned T cells/well plus […] irradiated syngeneic spleen cells (APC) plus 100 ng/well of intact iLRP/OFA protein or the various truncated iLRP/OFA proteins or the various iLRP/OFA peptides in Iscove's modified Dulbecco's medium (IMDM) containing 2 mM L-glutamine, 100 U/ml of penicillin G, 100 μg of streptomycin sulfate, and 10% fetal calf serum. The cells were cultured for a total of 48 hours. After 24 hours of culture 5′-bromodeoxyuridine was added to a final concentration of 10 μM/well. The cells were cultured for another 24 hours. At the end of the last 24 hours of incubation, the plates were centrifuged at 300×g for 10 min, and the labelling medium removed. The cells were then dried at 60° C. for 1 hour. The cells were fixed with an ethanol fixative provided in the Biotrak kit for 30 min at room temperature, fixative was removed, and the wells were coated with blocking buffer (1% protein in 50 mM Tris-HCl, 150 mM NaCl, pH 7.4) and incubated for 30 min at room temperature. The blocking buffer was removed, 100 μl of 1:100 diluted peroxidase-labelled anti-BUdR antibody was added to each well and the plates were incubated for 90 min at room temperature. The antibody solution was removed, and the wells washed three times with 300 μl/well of wash buffer. 200 μl of 3,3′, 5,5′-tetramethylbenzidine in […] DMSO was added to each well and the plate was covered and incubated at room temperature while oscillating gently for 5-30 min. When the required color density was reached, the reaction was stopped by adding 25 μl of 1M sulfuric acid to each well and the plate read on a microELISA reader at 450 nm.
# (§4) Each time the assay was done, clones were stimulated by APC and intact iLRP/OFA as a positive control. Cloned T cells were also cultured in the presence of only APC in IMDM or in the presence of APC and an iLRP/OFA peptide or truncated iLRP/OFA known not to stimulate the clones being tested. These served as negative controls. In wells where BUdR was incorporated (the iLRP/OFA stimulates proliferation of the T cells), the A450 was at least 10-fold and often approximately 50-fold higher than the negative controls. Because the Ts cells always presented with apparently low affinity T cell antigen receptors, their BUdR incorporation gave A450 values about 10 times higher than the negative controls (e.g., about 0.2 vs. 0.02), but about 5 times lower than the Th1 or Tc clones (e.g., usually about 0.9).
# Overlapping 12mer peptides of the first 25 amino acids of murine iLRP were produced. Thus, peptides 1-4 corresponded to amino acid residues 1-12, 5-16, 9-20 and 17-28 of murine iLRP. […]
# [3] = system: CD8 T cell clone M3 (Tc); assay: BUdR incorporation ELISA proliferation assay, Tc clone M3; conditions: Table 4
# Protocol: as §1, §2
# [4] = system: CD8 iLRP-specific T cell clone M11 (Ts); assay: BUdR incorporation ELISA proliferation assay, Ts clone M11; conditions: Table 5
# Protocol: as §1, §2
# [5] = system: iLRP-specific T cell clone L4 (Tc); assay: BUdR incorporation ELISA proliferation assay, Tc clone L4; conditions: Table 8; overlapping 12-mers of iLRP 136-166; 100 U/ml IL-2
# Protocol: as §1, §3
# as §4, with “0.9). […]” for “0.9).”
# [6] = system: iLRP-specific T cell clone H2 (Ts); assay: BUdR incorporation ELISA proliferation assay, Ts clone H2
# Protocol: as §1, §3
# as §4, with “0.9). […]” for “0.9).”
# [7] = system: iLRP-specific T cell clone H4 (Ts); assay: BUdR incorporation ELISA proliferation assay, Ts clone H4
# Protocol: as §1, §3
# as §4, with “0.9). […]” for “0.9).”
# [8] = system: iLRP-specific T cell clone L5 (Tc); assay: BUdR incorporation ELISA proliferation assay, Tc clone L5; conditions: Table 8; overlapping 12-mers of iLRP 136-166; 100 U/ml IL-2
# Protocol: as §1, §3
# as §4, with “0.9). […]” for “0.9).”
# [9] = system: iLRP-specific Th1, Tc, and Ts clones; assay: BUdR incorporation proliferation assay, comparison across iLRP-specific T cell clone types; conditions: Table 14; type of T cell clone reactive with the 12-mer
# Protocol: as §1, §3, §4
# Determination of the portion of the truncated iLRP/OFA protein or peptide reacted to by a given clone was done by analysis of the proliferation pattern to the various truncated proteins or peptides. […]
# [10] = system: iLRP-specific T cell clone H3 (Th1); assay: BUdR incorporation ELISA proliferation assay, Th1 clone H3; conditions: Table 8; overlapping 12-mers of iLRP 136-166; 100 U/ml IL-2
# Protocol: as §1, §3
# as §4, with “0.9). […]” for “0.9).”
# [11] = system: CD8 iLRP-specific T cell clone L6 (Tc); assay: BUdR incorporation ELISA proliferation assay, Tc clone L6; conditions: Table 5
# Protocol: as §1
# More specifically, the epitope-specificity of the iLRP-specific Th1, Tc, and Ts clones was determined using a modification of the 5′-bromodeoxyuridine (BudR) incorporation ELISA technique described in Rohrer, J. W., A. L. Barsoum, D. L. Dyess, J. A. Tucker, and J. H. Coggin, Jr. 1999. Human breast carcinoma patients develop clonable oncofetal antigen-specific effector and regulatory T lymphocytes. J. Immunol. 162:6880, using the Biotrak BUdR incorporation assay (Amersham, Arlington Heights, Ill.). Briefly, at the time of restimulation of the clones, a portion of the cloned T cells were assayed for proliferation to antigen-presenting cells (APC) and various iLRP peptides. The assay was performed with 10,000 viable cloned T cells/well plus […] irradiated syngeneic spleen cells (APC) plus 100 ng/well of intact iLRP/OFA protein or the various truncated iLRP/OFA proteins or the various iLRP/OFA peptides in Iscove's modified Dulbecco's medium (IMDM) containing 2 mM L-glutamine, 100 U/ml of penicillin G, 100 μg of streptomycin sulfate, and 10% fetal calf serum. The cells were cultured for a total of 48 hours. After 24 hours of culture 5′-bromodeoxyuridine was added to a final concentration of 10 μM/well. The cells were cultured for another 24 hours. […] When the required color density was reached, the reaction was stopped by adding 25 μl of 1M sulfuric acid to each well and the plate read on a microELISA reader at 450 nm. […]
# [12] = Table 8, overlapping 12-mers of iLRP 136-166, 100 U/ml IL-2
substance,measurement,setting,value
YIYKRKSDGTYI [P4 (aa 37-48)],Proliferation of clone H5 (in words),[1],proliferated to iLRP peptides 3 and 4 equally well
QMKEEDVLKLLAA [Peptide 3],Proliferation of clone L1 (in words),[2],does react somewhat
same,"BUdR Incorporation (A450) of iLRP-specific T cell clone L1 cells, Expt. 1",[2],.09 A450
same,"BUdR Incorporation (A450) of iLRP-specific T cell clone L1 cells, Expt. 2",[2],.07 A450
MSGALDVLQMKE [Peptide 1],"BUdR Incorporation (A450) of iLRP-specific T cell clone L1 cells, Expt. 1",[2],.018 A450
same,"BUdR Incorporation (A450) of iLRP-specific T cell clone L1 cells, Expt. 2",[2],.020 A450
RTWEKLLLAARA [P8 (aa 53-64)],Proliferation of clone M3 (in words),[3],proliferated to iLRP peptides 7 and 8 equally well
TPIAGRFTPGTF [P19 (aa 97-108)],Proliferation of clone M11 (in words),[4],proliferated equally well
EASYVNLPTIAL [Peptide 31-1],"BudR Incorporation (A450), T cell clone L4 (Tc)",[5],.015 A450
same,"BudR Incorporation (A450), T cell clone H2 (Ts)",[6]; [12],.23 A450
same,Proliferation of Ts clone H2 (in words),[6]; text on Table 8,proliferated equally
same,"BudR Incorporation (A450), T cell clone H4 (Ts)",[7]; [12],.22 A450
same,Proliferation of Ts clone H4 (in words),[7]; text on Table 8,proliferated equally
same,"BudR Incorporation (A450), T cell clone L5 (Tc)",[8],.017 A450
same,Reactive T cell clones,[9],Ts
same,"BudR Incorporation (A450), T cell clone H3 (Th1)",[10],.016 A450
NTGQRAVLKFAA [P15 (aa 81-92)],Proliferation of clone L6 (in words),[11],proliferated equally well
INLKRTWEKLLL [P7 (aa 49-60)],Proliferation of clone M3 (in words),[3],proliferated to iLRP peptides 7 and 8 equally well
ATGATPIAGRFT [P18 (aa 93-104)],Proliferation of clone M11 (in words),[4],proliferated equally well
LDVLQMKEEDVL [Peptide 2],"BUdR Incorporation (A450) of iLRP-specific T cell clone L1 cells, Expt. 1",[2],.017 A450
same,"BUdR Incorporation (A450) of iLRP-specific T cell clone L1 cells, Expt. 2",[2],.019 A450
"P10 (aa 61-72): iLRP 12-mer peptide, amino acids 61-72 (AARAIVAIENPA)","BUdR incorporation, CD8 iLRP-specific T cell clone L6 (Tc)","[11]; 100 ng/well stimulant with APC, two values given",".017, .017 A450"
